Assay results reported in patent US20230091047A1 (priority 2019, published 2023).
Where two headings read alike, the source gives them in different places.

Experiments:
in vitro = format: cell-based; details: human, HepG2 or HepG2.117 cells, ATPlite, mean value
Outline: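 Luminescent ATP quantitation served as the viability endpoint following a 3- or 4-day incubation with test compounds.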

[1] = system: HBV (HepG2.117 cell line, inducibly HBV producing); assay: Anti-HBV activity: intracellular HBV DNA by real-time PCR in HepG2.117 cells after 3 days of treatment; format: cell-based, hepatitis B virus
Outline: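 Readout is intracellular HBV DNA, measured by real-time PCR with HBV-specific primers and probe after 3 days of exposure to serial compound dilutions. Cells are the stable HepG2.117 line, where HBV replication is induced in the absence of doxycycline.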

[2] = 3-days incubation (unmarked values)
[3] = Hepatitis B virus, HepG2.117, 72 h, HepG2.117 cells, 3 days of treatment, intracellular HBV DNA by real-time PCR; mean value; read-out: EC50 (μM, mean value)
[4] = 3-days incubation (not marked with *)
[5] = Hepatitis B virus, HepG2.117, 72 h, HepG2.117 cells, intracellular HBV DNA by real-time PCR, 3 days of treatment, mean value; read-out: EC50 (μM, mean value)

Compound CC(C)Nc1nc2c(c(=O)n1-c1ccc(-c3cscn3)cc1)CCN(C(=O)c1ccc(Cl)c(Cl)c1)C2 [Compound C170, 7-(3,4-dichlorobenzoyl)-2-[(propan-2-yl)amino]-3-[4-(1,3-thiazol-4-yl)phenyl]-5,6,7,8-tetrahydropyrido[3,4-d]pyrimidin-4(3H)-one] has a CC50 at 3 days (in vitro; [2]) of over 50 µM and an EC50 [1, 3] of 0.53 µM.
For CC(C)Nc1nc2c(c(=O)n1-c1ccc(S(C)(=O)=O)cc1)CCN(C(=O)C1Cc3ccccc3O1)C2 (stereo not drawn) [Compound C360], the CC50 at 3 days (in vitro; [2]) was over 50 µM and the EC50 [1, 3] was over 50 µM.
For C[C@@H]1Cc2c(nc(NCc3ccncn3)n(-c3ccc(S(C)(=O)=O)cc3)c2=O)CN1C(=O)c1ccc(Cl)c(Cl)c1 [Compound C150, (6R)-7-(3,4-dichlorobenzoyl)-3-[4-(methanesulfonyl)phenyl]-6-methyl-2-{[(pyrimidin-4-yl)methyl]amino}-5,6,7,8-tetrahydropyrido[3,4-d]pyrimidin-4(3H)-one], the CC50 at 3 days (in vitro; [2]) was over 50 µM and the EC50 [1, 3] was 5.44 µM.
For CNC(=O)c1ccc(-n2c(N3CCC34CCC4)nc3c(c2=O)C[C@@H](C)N(C(=O)c2ccc(Cl)c(Cl)c2)C3)cc1 [Compound C373], the CC50 at 3 days (in vitro; [2]) was 28.3 µM and the EC50 [1, 3] was 0.71 µM.
With COc1ccc(CNc2nc3c(c(=O)n2-c2cccc4ocnc24)CCN(C(=O)c2ccc(Cl)c(Cl)c2)C3)cc1 [Compound C148, 3-(1,3-benzoxazol-4-yl)-7-(3,4-dichlorobenzoyl)-2-{[(4-methoxyphenyl)methyl]amino}-5,6,7,8-tetrahydropyrido[3,4-d]pyrimidin-4(3H)-one] the CC50 at 3 days (in vitro; [2]) was over 38 µM and the EC50 [1, 3] was 1.48 µM.
With COc1ccc(CNc2nc3c(c(=O)n2-c2ccc(C(C)=O)cc2)CCN(C(=O)c2ccc(Cl)c(Cl)c2)C3)cc1 [Compound C126, 3-(4-acetylphenyl)-7-(3,4-dichlorobenzoyl)-2-{[(4-methoxyphenyl)methyl]amino}-5,6,7,8-tetrahydropyrido[3,4-d]pyrimidin-4(3H)-one] the CC50 at 3 days (in vitro; [2]) was over 50 µM and the EC50 [1, 3] was 1.51 µM.
With CNC(=O)c1ccc(-n2c(NCC(n3cncn3)C(F)(F)F)nc3c(c2=O)C[C@@H](C)N(C(=O)c2ccc(Cl)c(Cl)c2)C3)cc1 (stereo partly drawn) [Compound C601] the CC50 at 3 days (in vitro; [4]) was over 50 µM and the EC50 [1, 5] was 7.71 µM.
Compound CNC(=O)c1cc(-n2c(O)nc3c(c2=O)C[C@@H](C)N(C(=O)c2ccc(Cl)c(C(F)(F)F)c2)C3)n(C)n1 [Compound C653] has a CC50 at 3 days (in vitro; [4]) of over 50 µM and an EC50 [1, 5] of over 2.5 µM.
Cc1noc2cc(-n3c(NC(C)C)nc4c(c3=O)C[C@@H](C)N(C(=O)c3ccc(Cl)c(Cl)c3)C4)ccc12 [Compound C395] gave a CC50 at 3 days (in vitro; [4]) of over 50 µM and an EC50 [1, 5] of 0.15 µM.
In the case of CNC(=O)c1ccc(-n2c(N[C@H](C)c3cccc(OC)c3)nc3c(c2=O)C[C@@H](C)N(C(=O)c2ccc(Cl)c(Cl)c2)C3)cc1 (single isomer, unassigned) [Compound C394a], the CC50 at 3 days (in vitro; [4]) is reported as over 50 µM and the EC50 [1, 5] is reported as 32.5 µM.
With CC(C)Nc1nc2c(c(=O)n1-c1ccc(C(=O)NC3CC3)cc1)C[C@@H](C)N(C(=O)c1ccc(Cl)c(C(F)(F)F)c1)C2 [Compound C654] the CC50 at 3 days (in vitro; [4]) was over 50 µM and the EC50 [1, 5] was 0.03 µM.
In the case of CNC(=O)c1ccc(-n2c(NC(C)C)nc3c(c2=O)C[C@@H](C)N(C(=O)c2cc(Br)cc(C(F)(F)F)c2)C3)cc1 [Compound C602], the CC50 at 3 days (in vitro; [4]) is reported as over 25 µM and the EC50 [1, 5] is reported as 0.38 µM.
For CNC(=O)c1ccc(-n2c(N[C@H](C)C(C)(C)C)nc3c(c2=O)C[C@@H](C)N(C(=O)c2ccc(Cl)c(Cl)c2)C3)cc1 (single isomer, unassigned) [Compound C459a], the CC50 at 3 days (in vitro; [4]) was 31.9 µM and the EC50 [1, 5] was 0.44 µM.
With CC(C)Nc1nc2c(c(=O)n1-c1ccc(-c3ccco3)cc1)CCN(C(=O)c1ccc(Cl)c(Cl)c1)C2 [Compound C175, 7-(3,4-dichlorobenzoyl)-3-[4-(furan-2-yl)phenyl]-2-[(propan-2-yl)amino]-5,6,7,8-tetrahydropyrido[3,4-d]pyrimidin-4(3H)-one] the CC50 at 3 days (in vitro; [2]) was 17 µM and the EC50 [1, 3] was 1.25 µM.
With CNC(=O)c1n[nH]c(-n2c(NC(C)C)nc3c(c2=O)C[C@@H](C)N(C(=O)c2ccc(Cl)c(Cl)c2)C3)c1Cl [Compound C692] the CC50 at 3 days (in vitro; [4]) was over 50 µM and the EC50 [1, 5] was 0.07 µM.
With CC(C)Nc1nc2c(c(=O)n1-c1ccc(N3CC(=O)N(C)C3)cc1)C[C@@H](C)N(C(=O)c1ccc(Cl)c(Cl)c1)C2 [Compound C202, (6R)-7-(3,4-dichlorobenzoyl)-6-methyl-3-[4-(3-methyl-4-oxoimidazolidin-1-yl)phenyl]-2-[(propan-2-yl)amino]-5,6,7,8-tetrahydropyrido[3,4-d]pyrimidin-4(3H)-one] the CC50 at 3 days (in vitro; [2]) was over 50 µM and the EC50 [1, 3] was 0.19 µM.
In the case of COc1ccc(CNc2nc3c(c(=O)n2CC2CC2)CCN(C(=O)c2ccc(Cl)c(Cl)c2)C3)cc1 [Compound C59, 3-(cyclopropylmethyl)-7-(3,4-dichlorobenzoyl)-2-{[(4-methoxyphenyl)methyl]amino}-5,6,7,8-tetrahydropyrido[3,4-d]pyrimidin-4(3H)-one], the CC50 at 3 days (in vitro; [2]) is reported as over 50 µM and the EC50 [1, 3] is reported as 2.53 µM.
In the case of CNC(=O)c1ccc(-n2c(NC(C)C)nc3c(c2=O)C[C@@H](C)N(C(=O)c2ccc(Cl)cc2F)C3)cc1 [Compound C520], the CC50 at 3 days (in vitro; [4]) is reported as over 50 µM and the EC50 [1, 5] is reported as 3.74 µM.
COc1ccc(CNc2nc3c(c(=O)n2-c2cccc(C(=O)O)c2)CCN(C(=O)c2ccc(Cl)c(Cl)c2)C3)cc1 [Compound C75, 3-[7-(3,4-dichlorobenzoyl)-2-{[(4-methoxyphenyl)methyl]amino}-4-oxo-5,6,7,8-tetrahydropyrido[3,4-d]pyrimidin-3(4H)-yl]benzoic acid] gave a CC50 at 3 days (in vitro; [2]) of over 50 µM and an EC50 [1, 3] of over 50 µM.
In the case of CNC(=O)c1ccc(-n2c(N[C@@H](C)c3ccc(OC)cc3)nc3c(c2=O)C[C@@H](C)N(C(=O)c2ccc(Cl)c(Cl)c2)C3)cc1 (single isomer, unassigned) [Compound C347b], the CC50 at 3 days (in vitro; [4]) is reported as over 50 µM and the EC50 [1, 5] is reported as 0.27 µM.
Work on CC[C@@H]1Cc2c(nc(NC(C)C)n(-c3ccc(S(C)(=O)=O)cc3)c2=O)CN1C(=O)c1ccc(Cl)c(Cl)c1 (single isomer, unassigned) [Compound C158A, (6*R)-7-(3,4-dichlorobenzoyl)-6-ethyl-3-[4-(methanesulfonyl)phenyl]-2-[(propan-2-yl)amino]-5,6,7,8-tetrahydropyrido[3,4-d]pyrimidin-4(3H)-one] yielded a CC50 at 3 days (in vitro; [2]) of over 50 µM and an EC50 [1, 3] of 0.91 µM.
For CNC(=O)c1ccc(-n2c(N[C@H](C)c3ccccn3)nc3c(c2=O)C[C@@H](C)N(C(=O)c2ccc(Cl)c(Cl)c2)C3)cc1 (single isomer, unassigned) [Compound C320, 4-[(6R)-7-(3,4-dichlorobenzoyl)-6-methyl-4-oxo-2-{[(1*R)-1-(pyridin-2-yl)ethyl]amino}-5,6,7,8-tetrahydropyrido[3,4-d]pyrimidin-3(4H)-yl]-N-methylbenzamide], the CC50 at 3 days (in vitro; [2]) was over 50 µM and the EC50 [1, 3] was 0.27 µM.
With CC(C)Nc1nc2c(c(=O)n1-c1ccc(S(C)(=O)=O)cc1)C(C)CN(C(=O)c1ccc(Cl)c(Cl)c1)C2 (stereo not drawn) [Compound C154, 7-(3,4-dichlorobenzoyl)-3-[4-(methanesulfonyl)phenyl]-5-methyl-2-[(propan-2-yl)amino]-5,6,7,8-tetrahydropyrido[3,4-d]pyrimidin-4(3H)-one] the CC50 at 3 days (in vitro; [2]) was over 50 µM and the EC50 [1, 3] was 0.52 µM.
Compound COc1ccc(CNc2nc3c(c(=O)n2CCNS(C)(=O)=O)CCN(C(=O)c2ccc(Cl)c(Cl)c2)C3)cc1 [Compound C111, N-{2-[7-(3,4-dichlorobenzoyl)-2-{[(4-methoxyphenyl)methyl]amino}-4-oxo-5,6,7,8-tetrahydropyrido[3,4-d]pyrimidin-3(4H)-yl]ethyl}methanesulfonamide] has a CC50 at 3 days (in vitro; [2]) of over 50 µM and an EC50 [1, 3] of 7.64 µM.
In the case of COc1ccccc1-n1c(NC2CCc3ccccc32)nc2c(c1=O)CCN(C(=O)c1ccc(Cl)c(Cl)c1)C2 (stereo not drawn) [Compound C55, 7-(3,4-dichlorobenzoyl)-2-[(2,3-dihydro-1H-inden-1-yl)amino]-3-(2-methoxyphenyl)-5,6,7,8-tetrahydropyrido[3,4-d]pyrimidin-4(3H)-one], the CC50 at 3 days (in vitro; [2]) is reported as 23.6 µM and the EC50 [1, 3] is reported as 22.1 µM.
In the case of CNC(=O)c1ccc(-n2c(NC(C)C)nc3c(c2=O)C[C@@H](C)N(C(=O)c2ccc(Cl)c(Cl)c2)C3)cc1OC [Compound C317, 4-[(6R)-7-(3,4-dichlorobenzoyl)-6-methyl-4-oxo-2-[(propan-2-yl)amino]-5,6,7,8-tetrahydropyrido[3,4-d]pyrimidin-3(4H)-yl]-2-methoxy-N-methylbenzamide], the CC50 at 3 days (in vitro; [2]) is reported as over 50 µM and the EC50 [1, 3] is reported as 0.14 µM.
With CC(C)Nc1nc2c(c(=O)n1-c1ccc(Br)cc1)C[C@@H](C)N(C(=O)c1ccc(Cl)c(Cl)c1)C2 [Compound C183, (6R)-3-(4-bromophenyl)-7-(3,4-dichlorobenzoyl)-6-methyl-2-[(propan-2-yl)amino]-5,6,7,8-tetrahydropyrido[3,4-d]pyrimidin-4(3H)-one] the CC50 at 3 days (in vitro; [2]) was over 50 µM and the EC50 [1, 3] was 0.21 µM.
CC(C)Nc1nc2c(c(=O)n1-c1ccc(-n3cncn3)cc1)C[C@@H](C)N(C(=O)c1ccc(Cl)c(Cl)c1)C2 [Compound C611] gave a CC50 at 3 days (in vitro; [4]) of over 50 µM and an EC50 [1, 5] of 0.17 µM.
Work on COc1ccc(CNc2nc3c(c(=O)[nH]2)CCN(C(=O)c2cc4ccc(Cl)cc4[nH]2)C3)cc1 [Compound C79, 7-(6-chloro-1H-indole-2-carbonyl)-2-{[(4-methoxyphenyl)methyl]amino}-5,6,7,8-tetrahydropyrido[3,4-d]pyrimidin-4(3H)-one] yielded a CC50 at 3 days (in vitro; [2]) of 37.5 µM and an EC50 [1, 3] of 2.32 µM.
With CNC(=O)c1ccc(-n2c(N[C@@H](C)c3cc(C)no3)nc3c(c2=O)C[C@@H](C)N(C(=O)c2ccc(Cl)c(Cl)c2)C3)cc1 (single isomer, unassigned) [Compound C433b] the CC50 at 3 days (in vitro; [4]) was over 50 µM and the EC50 [1, 5] was 0.73 µM.
